From PMC9905294 (Biochemistry, 2023)
Converted amounts (≈) assume the structure as drawn. Where two headings read alike, the source gives them in different places.

What was measured:
Mtb mc^26230 = assay: MIC determination of compounds alone; type: cell-based, Mycobacterium tuberculosis; settings: for MIC: Mycobacterium tuberculosis, read-out: MIC mc^26230; for MIC mc^26230: compound alone, duplicate
AAC(3)-IV = AAC(3)-IV (Salmonella sp, UniProt P08988); type: biochemical; settings: concentrations up to 200 μM
AAC(6’)-Ie/APH(2”)-Ia = AAC(6’)-Ie/APH(2”)-Ia (Staphylococcus aureus, UniProt P0A0C1); assay: Inhibitor selectivity, NEO acetylation assay; type: biochemical; settings: concentrations up to 200 μM
Mtb Eis [1] = biological target: T1, Mtb Eis (Mycobacterium tuberculosis, UniProt P9WFK7); assay: Eis acetylation assay; type: biochemical
AAC(2’)-Ic = AAC(2’)-Ic (Mycobacterium tuberculosis, UniProt P9WQG9); assay: Inhibitor selectivity, NEO acetylation assay; type: biochemical; settings: concentrations up to 200 μM
Mtb Eis [2] = biological target: T1, Mtb Eis; type: biochemical; settings: for mode of inhibition with respect to KAN: Michaelis-Menten analysis of KAN acetylation by Eis
Mtb Eis [3] = biological target: T1, Mtb Eis; assay: Screening acetylation assay with NEO as substrate; type: biochemical; settings: conditions of the original high-throughput assay; compound 20 μM, NEO 100 μM
[4] = with respect to KAN, global nonlinear regression fit
[5] = Eis 0.25 μM, KAN 100 μM, AcCoA 0.5 mM, Tris-HCl pH 8.0, triplicate

Sequence of AAC(6’)-Ie/APH(2”)-Ia (P0A0C1 whole entry): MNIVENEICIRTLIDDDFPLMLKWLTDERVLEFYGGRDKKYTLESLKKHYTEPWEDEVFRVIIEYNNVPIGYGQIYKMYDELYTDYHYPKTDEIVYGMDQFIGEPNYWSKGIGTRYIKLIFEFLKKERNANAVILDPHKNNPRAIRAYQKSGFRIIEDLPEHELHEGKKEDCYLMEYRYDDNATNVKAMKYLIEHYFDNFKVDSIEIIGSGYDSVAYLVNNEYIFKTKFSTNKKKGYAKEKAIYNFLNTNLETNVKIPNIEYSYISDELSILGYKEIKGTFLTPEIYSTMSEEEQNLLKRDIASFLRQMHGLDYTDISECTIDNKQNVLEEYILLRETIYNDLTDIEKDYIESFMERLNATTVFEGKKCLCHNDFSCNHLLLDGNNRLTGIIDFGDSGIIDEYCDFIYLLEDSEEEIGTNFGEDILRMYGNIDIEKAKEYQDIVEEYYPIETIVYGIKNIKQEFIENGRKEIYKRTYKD
Sequence of AAC(3)-IV (P08988 whole entry): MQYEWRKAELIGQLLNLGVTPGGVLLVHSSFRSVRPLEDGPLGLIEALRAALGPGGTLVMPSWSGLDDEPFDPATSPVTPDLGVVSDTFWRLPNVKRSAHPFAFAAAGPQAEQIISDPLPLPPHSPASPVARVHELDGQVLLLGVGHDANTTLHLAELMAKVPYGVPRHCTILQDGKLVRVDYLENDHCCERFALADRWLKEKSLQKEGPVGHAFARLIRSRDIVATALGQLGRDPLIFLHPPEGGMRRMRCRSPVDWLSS
T1 sequence (P9WFK7 whole entry): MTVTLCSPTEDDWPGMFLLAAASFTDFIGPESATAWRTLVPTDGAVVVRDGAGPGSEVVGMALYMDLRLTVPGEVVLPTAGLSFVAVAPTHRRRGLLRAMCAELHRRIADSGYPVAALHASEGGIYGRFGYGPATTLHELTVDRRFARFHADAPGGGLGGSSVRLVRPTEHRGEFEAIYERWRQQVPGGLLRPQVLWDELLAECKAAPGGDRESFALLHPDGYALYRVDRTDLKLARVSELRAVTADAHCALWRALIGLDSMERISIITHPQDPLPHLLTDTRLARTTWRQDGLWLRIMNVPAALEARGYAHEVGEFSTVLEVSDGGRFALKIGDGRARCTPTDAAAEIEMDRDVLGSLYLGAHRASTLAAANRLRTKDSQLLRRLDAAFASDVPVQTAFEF
Sequence of AAC(2’)-Ic (P9WQG9 whole entry): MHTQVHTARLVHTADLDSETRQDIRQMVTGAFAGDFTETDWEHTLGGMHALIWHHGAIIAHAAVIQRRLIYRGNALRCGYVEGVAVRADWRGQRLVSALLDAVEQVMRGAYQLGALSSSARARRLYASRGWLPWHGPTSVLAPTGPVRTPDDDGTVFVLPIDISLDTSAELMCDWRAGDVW

Row | Structure (SMILES) | MIC (Mtb mc^26230) [µM] | MIC mc^26230 (Mtb mc^26230) [µM] | inhibition of NEO acetylation by AAC(3)-IV (AAC(3)-IV) | inhibition of NEO acetylation by AAC(6’)-Ie (AAC(6’)-Ie/APH(2”)-Ia) | IC50 (Mtb Eis [1]) [µM] | inhibition of NEO acetylation by AAC(2’)-Ic (AAC(2’)-Ic) | Ki (Mtb Eis [2]) [µM] | mode of inhibition with respect to KAN (Mtb Eis [2]) | Ki,u (equilibrium constant for inhibitor binding to enzyme-substrate complex) (Mtb Eis [2]; [4]) | further results
1 | NNC(=O)c1ccncc1 [Isoniazid (INH), Isoniazid] | ≤ 3.6 |  |  |  |  |  |  |  |  | 
2 | NC[C@H]1O[C@H](O[C@H]2[C@H](O)[C@@H](O[C@H]3O[C@H](CO)[C@@H](O)[C@H](N)[C@H]3O)[C@H](N)C[C@@H]2N)[C@H](O)[C@@H](O)[C@@H]1O [Kanamycin (KAN), Kanamycin] |  | 0.17 (≈ 0.0824 µg/mL) |  |  |  |  |  |  |  | 
3 | CN1CCCC(n2nc(Cc3ccc(Cl)cc3)c3ccccc3c2=O)CC1 (stereo not shown) [Azelastine (AZL), Azelastine] | 32 (≈ 12.2 µg/mL) |  | not inhibited | not inhibited | 0.79 ± 0.08 | not inhibited | 0.24 ± 0.05 | competitive | 0.9 ± 0.5 (p = 0.08) μM | 
4 | Fc1ccc(NN=Cc2ccc(Cl)cc2)cc1 [Compound 3] |  | > 64 |  |  |  |  |  |  |  | IC50 (Mtb Eis [1]; [5]): > 200 µM; IC50 fold higher than that of PRO (Mtb Eis [1]; ratio of IC50 values vs PRO): > 7 fold
5 | [H]/N=C(\N/C(=N/[H])Nc1ccc(Cl)cc1)NC(C)C [Proguanil (PRO), Proguanil] | > 64 |  | not inhibited | not inhibited | 30 ± 7 | not inhibited | 28 ± 10 |  |  | inhibition of NEO acetylation activity of Mtb Eis (Mtb Eis [3]): detectable inhibition
6 | [H]/N=C(\N/C(=N/[H])NCCCCCCNC(=N)NC(=N)Nc1ccc(Cl)cc1)Nc1ccc(Cl)cc1 [Chlorhexidine (CHX), Chlorhexidine] | ≤ 0.03 |  |  |  |  |  |  |  |  | 
7 | OC(c1cc(C(F)(F)F)nc2c(C(F)(F)F)cccc12)C1CCCCN1 (stereo not shown) [Mefloquine (MEF), Mefloquine] | 16 (≈ 6.05 µg/mL) |  | not inhibited | not inhibited | 4.2 ± 0.8 | not inhibited | 7.2 ± 1.1 |  | 5.9 ± 1.3 (p = 0.0002) μM | 
8 | Fc1cccc(NN=Cc2ccc(Cl)cc2)c1 [Compound 2] |  | > 64 |  |  |  |  |  | uncompetitive inhibition | 104 ± 8 µM | IC50 (Mtb Eis [1]; [5]): 160 ± 49 µM; IC50 fold higher than that of PRO (Mtb Eis [1]; ratio of IC50 values vs PRO): 5 fold
9 | NC(N)=NN=Cc1ccc(Cl)cc1 [Compound 1] |  | > 64 |  |  |  |  |  | competitive inhibition |  | IC50 (Mtb Eis [1]; [5]): 10 ± 3 µM; fold more potent than PRO as an Eis inhibitor (Mtb Eis [1]; ratio of IC50 values vs PRO): 3 fold; Ki (Mtb Eis [2]; read-out: Ki (equilibrium constant for inhibitor binding to free enzyme), with respect to KAN, global nonlinear regression fit): 17 ± 2.4 µM
10 | COc1ccc(C(CN(C)C)C2(O)CCCCC2)cc1 (stereo not shown) [Venlafaxine (VEN), Venlafaxine] | > 64 |  |  |  | 134 ± 21 |  |  |  |  | inhibition of NEO acetylation activity of Mtb Eis (Mtb Eis [3]): detectable inhibition
11 | CCN(CC)CCCC(C)Nc1ccnc2cc(Cl)ccc12 (stereo not shown) [Chloroquine (CHQ), Chloroquine] | 64 (≈ 20.5 µg/mL) |  | not inhibited | not inhibited | 20 ± 2 | not inhibited | 12.3 ± 2.7 | competitive | 35 ± 20 (p = 0.1) μM | 
